Broadly, the pIC50 is −log10 of the IC50, conventionally taken in molar units.

pIC50: −log10 of the molar value.

For 28 molecules, IC50 results are on record in patent publication US8431593B2, “Heteroaryl amide derivatives” (H. Lundbeck A/S, priority 2006, dated 2013).

The target in one assay is T1, P2X7 receptor (Homo sapiens, UniProt Q99572).
T1 construct: host or cells: SH-SY5Y
T1 sequence (Q99572 1-595): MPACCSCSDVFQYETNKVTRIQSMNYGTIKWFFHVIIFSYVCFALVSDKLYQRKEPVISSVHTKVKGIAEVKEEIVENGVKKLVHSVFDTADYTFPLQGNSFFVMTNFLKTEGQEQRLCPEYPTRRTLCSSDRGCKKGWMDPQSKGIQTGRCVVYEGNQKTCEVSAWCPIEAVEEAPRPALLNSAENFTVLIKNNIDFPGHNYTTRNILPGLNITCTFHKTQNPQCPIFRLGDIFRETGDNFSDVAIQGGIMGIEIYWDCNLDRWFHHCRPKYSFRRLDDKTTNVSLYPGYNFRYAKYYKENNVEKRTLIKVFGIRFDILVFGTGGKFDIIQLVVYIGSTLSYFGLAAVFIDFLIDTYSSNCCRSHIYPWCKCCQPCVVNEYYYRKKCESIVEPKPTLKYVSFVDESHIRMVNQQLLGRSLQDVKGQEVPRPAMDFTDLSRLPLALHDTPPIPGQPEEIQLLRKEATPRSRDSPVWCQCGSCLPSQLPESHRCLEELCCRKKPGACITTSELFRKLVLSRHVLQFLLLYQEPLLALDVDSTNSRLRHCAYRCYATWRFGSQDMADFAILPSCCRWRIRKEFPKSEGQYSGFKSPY
In words: P2X7 calcium mobilization assay, high throughput, antagonist activity (Example 4A). The following applies: 50% decrease in the fluorescence response of cells exposed to 80 μM 2′(3′)-O-(4-benzoyl-benzoyl)adenosine 5′-triphosphate; Example 4A; read-out: IC50. It counts as cell-based. The method, boiled down:
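FLIPR^TETRA calcium read-out: maximum RFU per well minus average no-agonist control, with agonist wells giving the average positive maximum. Cells seeded at 100,000/well one day ahead, dye-loaded 1 h, rinsed, then exposed to compound for 1 h at room temperature.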
Background: Calcium flux is commonly read through the fluorescence of an indicator in the cells.
As for `O=C(NCC12CC3CC(CC(C3)C1)C2)c1cccc2nc(CCI)cn12` [Compound 599, N-(adamantan-1-ylmethyl)-2-(2-iodoethyl)imidazo[1,2-a]pyridine-5-carboxamide], the pIC50 is greater than 5.70.

`CCN(CC)C(=O)c1cn2c(C(=O)NC[C@@H]3CC[C@H]4C[C@@H]3C4(C)C)cccc2n1` [Compound 477, 5-N-{[(1S,2R,5S)-6,6-dimethylbicyclo[3.1.1]hept-2-yl]methyl}-2-N,2-N-diethylimidazo[1,2-a]pyridine-2,5-dicarboxamide]: the pIC50 is greater than 5.70.

As for `C[C@H]1CNCCN1C(=O)c1cn2c(C(=O)NCC34CC5CC(CC(C5)C3)C4)cccc2n1` [Compound 601, N-(adamantan-1-ylmethyl)-2-{[(2S)-2-methylpiperazin-1-yl]carbonyl}imidazo [1,2-a]pyridine-5-carboxamide], the pIC50 was greater than 5.70.

With `CC1(C)[C@@H]2CC[C@@H](CNC(=O)c3cccc4nc(CC(=O)N5C[C@H]6CC5CN6)cn34)[C@H]1C2` (stereo in doubt) [Compound 558, 2-{2-[(1R,4R)-2,5-diazabicyclo[2.2.1]hept-2-yl]-2-oxoethyl}-N-{[(1R,2R,5R)-6,6-dimethylbicyclo [3.1.1]hept-2-yl]methyl}imidazo[1,2-a]pyridine-5-carboxamide], the pIC50 is greater than 5.70.

In the case of `O=C(NCC12CC3CC(CC(C3)C1)C2)c1cccc2nc(CSc3ncc[nH]3)cn12` [Compound 542, N-(adamantan-1-ylmethyl)-2-[(1H-imidazol-2-ylthio)methyl] imidazo [1,2-a]pyridine-5-carboxamide], the pIC50 is greater than 5.70.

Take `O=C(CC12CC3CC(CC(C3)C1)C2)Nc1cccc2nc(C(=O)NC3(CO)CCCC3)cn12` [Compound 441, 5-[(adamantan-1-ylacetyl)amino]-N-[1-(hydroxymethyl)cyclopentyl]imidazo[1,2-a]pyridine-2-carboxamide]: the pIC50 is greater than 5.70.

Staying with this assay, now noted: 50% decrease in the fluorescence response of cells exposed to 80 μM of 2′(3′)-O-(4-benzoyl-benzoyl)adenosine 5′-triphosphate; Example 4A; read-out: IC50.
`O=C(O)CCCc1cn2c(C(=O)NCC34CC5CC(CC(C5)C3)C4)cccc2n1` [Compound 692, 4-{5-[(adamantan-1-ylmethyl)carbamoyl]imidazo[1,2-a]pyridin-2-yl} butanoic acid]: the pIC50 is greater than 5.70.

In the case of `CCN(CC)CCNC(=O)c1cn2c(C(=O)NCC34CC5CC(CC(C5)C3)C4)cccc2n1` [Compound 651, 5-N-(adamantan-1-ylmethyl)-2-N-[2-(diethylamino)ethyl]imidazo [1,2-a]pyridine-2,5-dicarboxamide], the pIC50 is greater than 5.70.

In the case of `NCC1CCCCN1C(=O)c1cn2c(C(=O)NCC34CC5CC(CC(C5)C3)C4)cccc2n1` (stereo not shown) [Compound 632, N-(adamantan-1-ylmethyl)-2-{[2-(aminomethyl)piperidin-1-yl]carbonyl}imidazo[1,2-a]pyridine-5-carboxamide], the pIC50 is greater than 5.70.

On to `CC(C)NCCSCc1cn2c(C(=O)NCC34CC5CC(CC(C5)C3)C4)cccc2n1` [Compound 757, N-(adamantan-1-ylmethyl)-2-({[2-(isopropylamino)ethyl]thio}methyl) imidazo[1,2-a] pyridine-5-carboxamide], for which the pIC50 is greater than 5.70.

The same assay, now with this note: 50% decrease in the fluorescence response of cells exposed to 80 μM of 2′(3′)-O-(4-benzoyl-benzoyl)adenosine 5′-triphosphate; determined as in Example 4A; read-out: IC50.
For `CCOC(=O)C(CCC(C)C)c1cn2c(C(=O)NCC34CC5CC(CC(C5)C3)C4)cccc2n1` (stereo not shown) [Compound 907, ethyl 2-{5-[(adamantan-1-ylmethyl)carbamoyl]imidazo[1,2-a]pyridin-2-yl}-5-methylhexanoate], the pIC50 was greater than 5.70.

For `CCCCC(C(=O)O)c1cn2c(C(=O)NCC34CC5CC(CC(C5)C3)C4)cccc2n1` (stereo not shown) [Compound 908, 2-{5-[(adamantan-1-ylmethyl)carbamoyl]imidazo[1,2-a]pyridin-2-yl} hexanoic acid], the negative-log IC50 (pIC50) is greater than 5.70.

Consider `CCOC(=O)C(CC1CC1)c1cn2c(C(=O)NCC34CC5CC(CC(C5)C3)C4)cccc2n1` (stereo not shown) [Compound 1001, ethyl 2-{5-[(adamantan-1-ylmethyl)carbamoyl]imidazo[1,2-a]pyridin-2-yl}-3-cyclopropylpropanoate], for which the pIC50 was greater than 5.70.

In the case of `Cc1ccc(C2(CNC(=O)c3cccc4nc(CC(=O)N5CCC[C@@H](N)C5)cn34)CCCCC2)cn1` [Compound 948, 2-{2-[(3R)-3-amino-piperidin-1-yl]-2-oxoethyl}-N-{[1-(6-methylpyridin-3-yl)cyclohexyl]methyl} imidazo[1,2-a] pyridine-5-carboxamide], the pIC50 is greater than 5.70.

On to `O=C(NCC12CC3CC(CC(C3)C1)C2)c1cccc2nc([C@H]3CC[C@@H](C(=O)O)CC3)cn12` [Compound 954, cis-4-{5-[(adamantan-1-ylmethyl)carbamoyl]imidazo[1,2-a]pyridin-2-yl} cyclohexane-carboxylic acid], for which the pIC50 was greater than 5.70.

With `CC(C)(C)CCNC(=O)Cc1cn2c(C(=O)NCC3(c4cccnc4)CCCCC3)cccc2n1` [Compound 884, 2-{2-[(3,3-dimethylbutyl)amino]-2-oxoethyl}-N-[(1-pyridin-3-ylcyclohexyl)methyl] imidazo[1,2-a] pyridine-5-carboxamide], the pIC50 was greater than 5.70.

The assay is the same for the next values; noted with them: P2X7 calcium mobilization, Example 4A; 50% decrease in the fluorescence response of cells exposed to 80 μM of (2′(3′)-O-(4-benzoyl-benzoyl)adenosine 5′-triphosephate); read-out: IC50.
For the molecule `CC(C)CC(CNC(=O)c1cccc2ncc(Cl)n12)c1ccc(C(F)(F)F)nc1` (stereo not shown) [Compound 1052, 3-chloro-N-{4-methyl-2-[6-(trifluoromethyl)pyridin-3-yl]pentyl} imidazo[1,2-a]pyridine-5-carboxamide], the pIC50 is greater than 5.70.

Take `O=C(NCC1(c2ccc(Cl)c(F)c2)CCCCC1)c1cccc2nc(CN3CCCC3)cn12` [Compound 1046, N-{[1-(4-chloro-3-fluorophenyl)cyclohexyl]methyl}-2-(pyrrolidin-1-ylmethyl) imidazo[1,2-a]pyridine-5-carboxamide]: the pIC50 is greater than 5.70.

As for `CN1CCCC(NC(=O)Cc2cn3c(C(=O)NCC45CC6CC(CC(C6)C4)C5)cccc3n2)C1` (stereo not shown) [Compound 1050, N-(adamantan-1-ylmethyl)-2-{2-[(1-methylpiperidin-3-yl)amino]-2-oxoethyl} imidazo[1,2-a]pyridine-5-carboxamide], the pIC50 was greater than 5.70.

For `CC(C)CC(CNC(=O)c1cccc2nc(C(C)N3CCCC3)cn12)c1ccc(Cl)cc1` (stereo not shown) [Compound 1035, N-[2-(4-chlorophenyl)-4-methylpentyl]-2-(1-pyrrolidin-1-ylethyl) imidazo[1,2-a]pyridine-5-carboxamide], the pIC50 was greater than 5.70.

The same assay, now with this note: SH-SY5Y cells; 50% decrease in fluorescence response to 80 μM BzATP; read-out: IC50.
With `C[C@H](O)CNC(=O)c1cn2c(C(=O)NCC34CC5CC(CC(C5)C3)C4)cccc2n1` [Compound 82, 5-N-(adamantan-1-ylmethyl)--[(2S)-2-hydroxy-propyl]imidazo[1,2-a]pyridine-2,5-dicarboxamide], the negative-log IC50 (pIC50) is greater than 5.70.

In the case of `O=C(Cc1cn2c(C(=O)NCC34CC5CC(CC(C5)C3)C4)cccc2n1)NN1CCCCCC1` [Compound 163, N-(adamantan-1-ylmethyl)-2-[2-(azepan-1-ylamino)-2-oxoethyl]imidazo[1,2-a]pyridine-5-carboxamide], the pIC50 was greater than 5.70.

In the case of `CCC(=O)NC1CCN(C(=O)Cc2cn3c(C(=O)NCC45CC6CC(CC(C6)C4)C5)cccc3n2)CC1` [Compound 183, N-(adamantan-1-ylmethyl)-2-{2-oxo-2-[4-(propionylamino)piperidin-1-yl]ethyl}imidazo[1,2-a]pyridine-5-carboxamide], the pIC50 was greater than 5.70.

For the molecule `Nc1ccn(Cc2cn3c(C(=O)NCC45CC6CC(CC(C6)C4)C5)cccc3n2)n1` [Compound 208, N-(adamantan-1-ylmethyl)-2-[(3-amino-1H-pyrazol-1-yl)methyl]imidazo[1,2-a]pyridine-5-carboxamide], the pIC50 is greater than 5.70.

For `NC1CCCN(CCc2cn3c(C(=O)NCC45CC6CC(CC(C6)C4)C5)cccc3n2)C1` (stereo not shown) [Compound 118, 2-[2-(3-amino-piperidin-1-yl)-ethyl]-imidazo[1,2-a]pyridine-5-carboxylic acid (adamantan-1-ylmethyl)-amide], the pIC50 is greater than 5.70.

As for `CCOC(=O)c1nc2cccc(C(=O)NCC34CC5CC(CC(C5)C3)C4)n2c1Cl` [Compound 15, ethyl 5-[(adamantan-1-ylmethyl)carbamoyl]-3-chloroimidazo[1,2-a]pyridine-2-carboxylate], the pIC50 is greater than 5.70.

Staying with this assay, now noted: fluorescence response of cells exposed to 80 μM 2′(3′)-O-(4-benzoyl-benzoyl)adenosine 5′-triphosphate; Example 4A; read-out: IC50.
As to `COCCC1CCN(C(=O)c2cn3c(NC(=O)CC45CC6CC(CC(C6)C4)C5)cccc3n2)CC1` [Compound 389, 2-adamantan-1-yl-N-(2-{[4-(2-methoxyethyl)piperidin-1-yl]carbonyl}imidazo[1,2-a]pyridin-5-yl)acetamide], the pIC50 was greater than 5.70.

With `O=C(CC12CC3CC(CC(C3)C1)C2)Nc1cccc2nc(C(=O)N3CCSCC3)cn12` [Compound 362, 2-adamantan-1-yl-N-[2-(thiomorpholin-4-ylcarbonyl)imidazo[1,2-a]pyridin-5-yl]acetamide], the pIC50 was greater than 5.70.
